Source: PMC10782483, “Development of the High-Affinity Carborane-Based Cannabinoid Receptor Type 2 PET Ligand [^18F]LUZ5-d8” (Journal of Medicinal Chemistry, 2023)
“And” between values parts separate entries of the source, which are not always exact repeats. Equal entries are not always repeated. “Also recorded” adds a separate entry of the source. Where two headings read alike, the source gives them in different places.

Columns and labels:
[1] = chemical stability tests by 1H and 11B{1H} NMR spectroscopy in aqueous DMSO-d6; type: physicochemical; conditions: for chemical stability in aqueous DMSO-d6 (NMR), in words / stability in aqeous DMSO-d6 (1H, 11B{1H}-NMR) / stability versus binding affinity assay time frame: aqueous DMSO-d6; for stability versus binding affinity assay time frame: assay time 90 min
Experimental: A high chemical and metabolic stability of the compounds is required for biological evaluation and application in vivo. The method of choice for evaluating the chemical stability was ^1H and ^11B{^1H} NMR spectroscopy, with the latter being particularly suitable for recognizing deboronation. Since the in vitro binding assays are performed in aqueous media, the stability tests should be performed under similar conditions. However, due to the high hydrophobicity of the carborane moieties, target compounds 9–11 and 15–17 were not soluble in aqueous solution without the addition of dimethyl sulfoxide (DMSO). Since a maximum of 1% DMSO can be used in the in vitro binding assay, stability measurements were performed in aqueous DMSO-d6 to see especially if deboronation occurs in the presence of water. Approximately 10 mg of each compound (9–11 and 15–17) was dissolved in the deuterated NMR solvent and monitored via NMR spectroscopy in time intervals of a few minutes (after the addition of the solvent to the respective solid compound) to at least 23 days for the o- (9 and 15) and m-carborane derivatives (10 and LUZ5) and beyond one year for the p-carborane analogues (11 and 17) (Figures S68–S79).
Stability tests were performed with ^1H and ^11B{^1H} NMR spectroscopy. Approximately 10 mg of each compound was dissolved in aqueous DMSO-d6 and measured directly thereafter and at increasing time intervals from a few minutes to a couple of days or beyond a year.
The stability of LUZ5 was additionally investigated under the conditions described above, but in the presence of larger amounts of H2O or D2O. For this, LUZ5 was dissolved in DMSO-d6 (0.5 mL) and either H2O (0.1 mL) or D2O (0.1 mL) was added.

human CB2R = biological target: T1, human CB2R (Homo sapiens, UniProt P34972); test: competitive binding affinity assay, membrane homogenates of hCB2R CHO cells, radioligand [3H]WIN55212-2; conditions: hCB2R CHO membranes
T1 construct: expressed in transfected cells; host or cells: CHO cells (membrane homogenates)
T1 sequence (P34972 whole entry): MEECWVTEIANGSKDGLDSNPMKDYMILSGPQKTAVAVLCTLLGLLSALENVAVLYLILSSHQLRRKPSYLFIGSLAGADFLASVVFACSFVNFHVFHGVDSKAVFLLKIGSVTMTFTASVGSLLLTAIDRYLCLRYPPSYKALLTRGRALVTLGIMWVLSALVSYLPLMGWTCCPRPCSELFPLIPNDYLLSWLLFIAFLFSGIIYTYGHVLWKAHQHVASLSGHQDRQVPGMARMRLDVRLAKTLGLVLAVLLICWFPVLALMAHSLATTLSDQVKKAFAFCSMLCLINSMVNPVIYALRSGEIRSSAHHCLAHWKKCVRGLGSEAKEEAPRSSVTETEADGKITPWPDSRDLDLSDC
Experimental: Target compounds 9–11, 15, LUZ5, and 17 were evaluated in a competitive binding affinity assay using hCB2R Chinese hamster ovary (CHO) cells and the agonistic high-affinity CB2R radioligand [^3H]WIN55212-2 (Figure S96).
(§1) The in vitro binding affinity assays were performed with membrane homogenates from Chinese hamster ovary (CHO) cells stably transfected with the human CB2R according to a previously published protocol.[95] The screening for CB1R binding affinity determination was performed with membrane homogenates from CHO cells stably transfected with the human CB1R as described previously.[96]

human CB1R = biological target: T2, human CB1R (Homo sapiens, UniProt P21554); test: CB1R binding affinity screening, membrane homogenates of CHO cells with human CB1R, radioligand [3H]SR141716A; conditions: human CB1R CHO membranes
T2 construct: expressed in transfected cells; host or cells: CHO cells (membrane homogenates)
T2 sequence (P21554 whole entry): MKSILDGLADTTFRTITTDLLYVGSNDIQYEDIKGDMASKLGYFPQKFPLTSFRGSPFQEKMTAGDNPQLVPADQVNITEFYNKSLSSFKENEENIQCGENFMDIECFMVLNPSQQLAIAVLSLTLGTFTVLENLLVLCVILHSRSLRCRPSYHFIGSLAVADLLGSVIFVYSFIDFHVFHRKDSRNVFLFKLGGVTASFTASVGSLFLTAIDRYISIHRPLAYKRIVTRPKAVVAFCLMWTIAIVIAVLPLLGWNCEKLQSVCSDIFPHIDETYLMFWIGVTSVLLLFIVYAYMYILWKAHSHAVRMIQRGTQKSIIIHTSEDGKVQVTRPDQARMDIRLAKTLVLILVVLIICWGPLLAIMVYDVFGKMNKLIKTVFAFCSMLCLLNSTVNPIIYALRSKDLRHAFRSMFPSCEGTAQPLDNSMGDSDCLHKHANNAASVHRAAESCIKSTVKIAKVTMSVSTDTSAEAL
Experimental: as §1

[2] = rat, in vivo; cited from earlier work
CB2R = conditions: reference compound; read-out: KiCB2R; cited from earlier work
[3] = cited from earlier work
[4] = tested on: mouse liver microsomes (MLMs); test: in vitro metabolism with mouse liver microsomes and NADPH, HPLC-UV-MS; type: in vitro ADME; conditions: NADPH, similar conditions
Experimental: Each of the compounds was incubated with mouse liver microsomes (MLMs) in phosphate-buffered saline (PBS) in the presence of nicotinamide adenine dinucleotide phosphate (NADPH) for 30 and 60 min at 37 °C, according to a literature protocol.[81],[82] After the addition of cold acetonitrile, the obtained supernatants were analyzed by HPLC-UV-MS (exemplified chromatogram and spectrum in Figures S91 and S92). […] In addition, negative control samples without NADPH or without NADPH and MLM were prepared and analyzed for each target compound.
For in vitro evaluation of metabolites, the following instruments were used: BioShake iQ (QUANTIFOIL Instruments, Jena, Germany), Centrifuge 5424 (Eppendorf, Hamburg, Germany), UltiMate 3000 UHPLC System (Thermo Scientific, Germering, Germany) including a DAD detector (DAD-3000RS) coupled to an MSQ Plus single quadrupole mass spectrometer (Thermo Scientific, Austin, TX). […] In brief, each of the test compounds (dissolved in DMSO, final concentration of 10 μM, final DMSO percentage of 1%) and MLMs (final protein concentration of 1 mg/mL) in PBS (pH 7.4) were preincubated in PBS (pH 7.4) for 5 min at 37 °C. Similarly preincubated NADPH (final concentration of 2 mM) was added to start the incubation. […] The supernatants were stored at 4 °C until they were measured by HPLC-UV-MS. […]

[5] = individual values behind the mean, read-out: KiCB2R individual values

## 1-(4-Fluorobutyl)-2-oxo-N-(1,7-dicarba-closo-dodecaboranyl)-1,2-dihydro-1,8-naphthyridine-3-carboxamide [Compound 11]
[1]
  chemical stability in aqueous DMSO-d6 (NMR), in words: stable for more than one year; also recorded: good chemical stability
  stability in aqeous DMSO-d6 (1H, 11B{1H}-NMR): ? 491 d
  stability versus binding affinity assay time frame: stability beyond the binding affinity assay time frame
Human CB2R; [5]
  Ki: 2.77 nM and 5.01 nM
Human CB2R; mean, read-out: KiCB2R mean
  Ki: 3.9 nM

## (Z)-N-[3-(4-Fluorobutyl)-4,5-dimethylthiazole-2(3H)-ylidene]-(1,7-dicarba-closo-dodecaboranyl)-carboxamide [LUZ5]
Human CB1R
  Ki: > 10 µM
[1]; D2O in DMSO-d6 1:5 (v/v), 11B{1H} NMR
  stable in DMSO-d6 with increased amounts of D2O: at least 8 days
[1]; H2O in DMSO-d6 1:5 (v/v), 11B{1H} NMR
  stable in DMSO-d6 with increased amounts of H2O: at least 19 days
[1]
  stability in aqeous DMSO-d6 (1H, 11B{1H}-NMR): ? 23 d
  stability versus binding affinity assay time frame: stability beyond the binding affinity assay time frame
Human CB2R; mean, read-out: KiCB2R mean
  Ki: 0.8 nM

## (Z)-N-[3-(4-Fluorobutyl)-4,5-dimethylthiazole-2(3H)-ylidene]-(1,12-dicarba-closo-dodecaboranyl)-carboxamide [Compound 17]
[1]
  chemical stability in aqueous DMSO-d6 (NMR), in words: stable for more than one year; also recorded: good chemical stability
  stability in aqeous DMSO-d6 (1H, 11B{1H}-NMR): ? 491 d
  stability versus binding affinity assay time frame: stability beyond the binding affinity assay time frame
Human CB2R; [5]
  Ki: 1.36 nM and 1.17 nM
Human CB2R; mean, read-out: KiCB2R mean
  Ki: 1.3 nM

## (Z)-N-[3-(4-Fluorobutyl)-4,5-dimethylthiazole-2(3H)-ylidene]-(1,2-dicarba-closo-dodecaboranyl)-carboxamide [Compound 15]
[1]
  chemical stability in aqueous DMSO-d6 (NMR), in words: good chemical stability
  stability in aqeous DMSO-d6 (1H, 11B{1H}-NMR): < 3 days
  stability versus binding affinity assay time frame: stability beyond the binding affinity assay time frame
Human CB2R; [5]
  Ki: 3.28 nM and 3.26 nM
Human CB2R; mean, read-out: KiCB2R mean
  Ki: 3.3 nM

## 1-(4-Fluorobutyl)-2-oxo-N-(1,2-dicarba-closo-dodecaboranyl)-1,2-dihydro-1,8-naphthyridine-3-carboxamide [Compound 9]
[1]
  chemical stability in aqueous DMSO-d6 (NMR), in words: additional signals were visible already after 2 h
  stability in aqeous DMSO-d6 (1H, 11B{1H}-NMR): < 0.083 days
  stability versus binding affinity assay time frame: too low
Human CB2R; mean, read-out: KiCB2R mean
  Ki: 40.8 nM

## Cc1s/c(=N\C(=O)C2C(C)(C)C2(C)C)n(CCOCC[18F])c1C [[^18F]4]
[2]
  intact radiotracer in plasma: 25%

## O=C(NC12CC3CC(CC(C3)C1)C2)c1cc2cccnc2n(CCCCF)c1=O [LU13]
CB2R
  Ki: 0.6 nM

## 1-(4-Fluorobutyl)-2-oxo-N-(1,7-dicarba-closo-dodecaboranyl)-1,2-dihydro-1,8-naphthyridine-3-carboxamide [Compound 10]
[1]
  stability in aqeous DMSO-d6 (1H, 11B{1H}-NMR): < 8 days
  stability versus binding affinity assay time frame: stability beyond the binding affinity assay time frame
Human CB2R; [5]
  Ki: 43.8 nM and 26.9 nM
Human CB2R; mean, read-out: KiCB2R mean
  Ki: 35.4 nM

## Cc1s/c(=N\C(=O)C2C(C)(C)C2(C)C)n(CCCC[18F])c1C [[^18F]3]
[3]; brain samples
  intact radioligand in brain: 36%
[3]; mouse, in vivo
  intact radiotracer in plasma: 7%

## C[C@]12CC[C@H]3[C@@H](CCC4=CC(=O)CC[C@@]43C)[C@@H]1CC[C@@H]2O [testosterone]
[4]
  conversion of positive control: complete conversion
